We go through 11 compounds from ChEMBL document CHEMBL1201862, “PubChem BioAssay data set” (2004).

Among the test systems are BT-549; DU-145; HL-60; Hs-578T; MCF7; MDA-MB-231; MDA-MB-435; NCI-H460; OVCAR-5; PC-3; RPMI-8226; SF-268; SK-MEL-2; SK-OV-3; SNB-75; SW-620; U-251; ACHN; SK-MEL-5; T47D.
What all share (assay): inhibition of tumour cell growth, NCI panel, 48 h

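Cells were grown in 96-well plates and exposed to each compound for 48 hours at five concentrations; endpoints were interpolated linearly between bracketing concentrations, or set to the highest concentration if not reached. GI50 is the concentration that inhibits growth by half.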 Activity calls are given as the source filed them. Cut-off read from the data, not from the text of the source: active = GI50 up to about 1.1 µM and inactive = higher.

As to `CN[C@@H]1C[C@H]2O[C@@](C)([C@@H]1OC)n1c3ccccc3c3c4c(c5c6ccccc6n2c5c31)C(=O)N[C@@H]4O`, the GI50 with BT-549 was 0.108 µM (active); in the experiment on DU-145, 0.0254 µM (active); in the experiment with HL-60, 0.0877 µM (active); in the experiment on Hs-578T, 0.00454 µM (active); in the experiment with MCF7, 0.0212 µM (active); in the experiment with MDA-MB-231, 0.0137 µM (active). In addition, the GI50 in the experiment on MDA-MB-435 is 0.0845 µM (active); in the experiment on NCI-H460 it was 0.04 µM (active); in the experiment with OVCAR-5, 0.015 µM (active); in the experiment on PC-3 it was 0.00904 µM (active); in the experiment on RPMI-8226, 0.658 µM (active); in the experiment with SF-268, 0.0408 µM (active). Also, the GI50 is 0.0145 µM (active) in the experiment on SK-MEL-2; 0.0267 µM (active) with SK-OV-3; < 0.0121 µM (active) with SNB-75; 0.0764 µM (active) with SW-620; 0.0456 µM (active) in the experiment with U-251.

For `CCOC(=O)Cn1sc2ncc([N+](=O)[O-])cc2c1=O`, the GI50 in the experiment on ACHN was 15.9 µM (inactive); in the experiment on DU-145, > 100 µM (inactive); in the experiment with HL-60, 8.15 µM (inactive); in the experiment with Hs-578T, 41 µM (inactive); in the experiment on MCF7, 18.1 µM (inactive); in the experiment with MDA-MB-231 it was 15.7 µM (inactive). Besides, the GI50 in the experiment with MDA-MB-435 is 16.2 µM (inactive); in the experiment with NCI-H460 it was 17.1 µM (inactive); with OVCAR-5, 19.2 µM (inactive); in the experiment on PC-3, 14.8 µM (inactive); in the experiment with RPMI-8226, 8 µM (inactive); in the experiment on SF-268, 24.5 µM (inactive). The GI50 with SK-MEL-2 is 22.2 µM (inactive); in the experiment with SK-MEL-5 it was 27.5 µM (inactive); with SK-OV-3, 18.3 µM (inactive); in the experiment on SNB-75, 39.5 µM (inactive); with SW-620 it was 16.1 µM (inactive); with T47D, 16.5 µM (inactive).

As to `NC1CC2NC3CCCCC3NC2CC1N` (stereo not given), the GI50 in the experiment with ACHN is 24.9 µM (inactive); with BT-549, > 100 µM (inactive); in the experiment with DU-145, 50.2 µM (inactive); with HL-60, 26.7 µM (inactive); in the experiment with Hs-578T, 27.9 µM (inactive); in the experiment on MCF7, 0.776 µM (active). For the same compound, the GI50 in the experiment on MDA-MB-231 is 61.7 µM (inactive); in the experiment on MDA-MB-435 it was 36.1 µM (inactive); in the experiment with NCI-H460, 29 µM (inactive); in the experiment with OVCAR-5, 42.7 µM (inactive); in the experiment on PC-3, 50.9 µM (inactive); in the experiment with RPMI-8226, 37.5 µM (inactive). For the same compound, the GI50 was 50.8 µM (inactive) in the experiment on SF-268; 50.1 µM (inactive) in the experiment on SK-MEL-2; 27.7 µM (inactive) in the experiment with SK-MEL-5; 28.4 µM (inactive) in the experiment on SK-OV-3; 25.1 µM (inactive) with SNB-75; 24.1 µM (inactive) with SW-620. Besides, the GI50 in the experiment with U-251 was 28 µM (inactive).

`Cc1c2c(n(C)c1C)C(=O)C1C(C2=O)C2(C)c3ccccc3C1(C)c1ccccc12` (stereo not given): the GI50 in the experiment on ACHN, with BT-549, in the experiment on DU-145, in the experiment on HL-60, in the experiment with Hs-578T and with MCF7 was > 100 µM (inactive) each time. Further, the GI50 in the experiment with MDA-MB-435, with NCI-H460, in the experiment with OVCAR-5, in the experiment with PC-3, in the experiment on RPMI-8226 and in the experiment with SF-268 was > 100 µM (inactive) throughout. Also, the GI50 in the experiment with SK-MEL-2, in the experiment on SK-MEL-5, in the experiment on SK-OV-3, in the experiment with SNB-75, in the experiment with SW-620 and in the experiment on T47D was > 100 µM (inactive) each time. The GI50 with U-251 is > 10 µM (inactive).

In the case of `COc1cc(OC)cc(Oc2nc3cc(F)c(F)cc3nc2-c2ccccc2)c1`, the GI50 in the experiment with ACHN, with BT-549, in the experiment with DU-145, with HL-60, in the experiment with Hs-578T and in the experiment with MCF7 was > 100 µM (inactive) throughout. For the same compound, the GI50 in the experiment with MDA-MB-435, in the experiment with NCI-H460, in the experiment on OVCAR-5, in the experiment with PC-3, in the experiment on SF-268 and in the experiment with SK-MEL-2 was > 100 µM (inactive) each time. The GI50 in the experiment with SK-MEL-5, with SK-OV-3, in the experiment on SNB-75, with SW-620, with T47D and with U-251 was > 100 µM (inactive) each time.

In the case of `CCCCC(=O)OC[n+]1ccc2c(C)c3[nH]c4ccc(OC)cc4c3c(C)c2c1`, the GI50 was 0.0938 µM (active) in the experiment on ACHN; 0.76 µM (active) in the experiment with DU-145; 0.422 µM (active) in the experiment with HL-60; 1.07 µM (active) in the experiment on Hs-578T; 0.168 µM (active) in the experiment on MCF7; 0.185 µM (active) with MDA-MB-231. Also, the GI50 in the experiment on MDA-MB-435 is 0.461 µM (active); in the experiment on NCI-H460, 0.0736 µM (active); with OVCAR-5 it was 1.67 µM (inactive); with PC-3, 0.308 µM (active); in the experiment on RPMI-8226 it was 0.0675 µM (active); in the experiment on SF-268, 0.344 µM (active). For the same compound, the GI50 in the experiment with SK-MEL-2 is 2.32 µM (inactive); with SK-MEL-5, 1.22 µM (inactive); in the experiment on SK-OV-3, 0.656 µM (active); in the experiment with SNB-75 it was 1.07 µM (active); with SW-620, 0.14 µM (active); in the experiment with T47D, 1.03 µM (active). For the same compound, the GI50 in the experiment on U-251 was 0.348 µM (active).

On to `CC(=O)c1ccc2c(c1)oc(=O)n2CCN1CCCCC1`, for which the GI50 with ACHN is > 100 µM (inactive); in the experiment with BT-549, > 100 µM (inactive); in the experiment with DU-145, > 100 µM (inactive); in the experiment on HL-60, > 100 µM (inactive); with Hs-578T, 93.5 µM (inactive); in the experiment with MCF7, > 100 µM (inactive). Also, the GI50 in the experiment on MDA-MB-231, with MDA-MB-435, in the experiment with NCI-H460, with OVCAR-5, in the experiment with PC-3 and with RPMI-8226 was > 100 µM (inactive) throughout. The GI50 in the experiment on SF-268, in the experiment on SK-MEL-2, with SK-MEL-5, in the experiment on SK-OV-3, in the experiment with SW-620 and in the experiment on U-251 was > 100 µM (inactive) throughout.

As to `CC(C)(C)C(O)CC(O)(C(F)(F)F)C(F)(F)F` (stereo not given), the GI50 in the experiment with ACHN, with DU-145, in the experiment on HL-60, with Hs-578T, with MCF7 and in the experiment on MDA-MB-231 was > 100 µM (inactive) each time. The GI50 in the experiment with MDA-MB-435, in the experiment on NCI-H460, with OVCAR-5, with PC-3, in the experiment on RPMI-8226 and with SF-268 was > 100 µM (inactive) throughout. In addition, the GI50 with SK-MEL-2 is > 100 µM (inactive); in the experiment with SK-MEL-5 it was > 100 µM (inactive); in the experiment with SK-OV-3, > 100 µM (inactive); in the experiment on SNB-75, 56.9 µM (inactive); in the experiment on SW-620 it was > 100 µM (inactive); with T47D it was > 100 µM (inactive). For the same compound, in the experiment on U-251, the GI50 is > 100 µM (inactive).

Consider `CCOC1(OCC)N=C(N)C2(C#N)C3(C(=O)N(C(C)C)N=C3C)C12C#N` (stereo not given), for which the GI50 with ACHN is > 100 µM (inactive); in the experiment with BT-549, > 100 µM (inactive); in the experiment on DU-145 it was > 100 µM (inactive); with HL-60, 0.893 µM (active); in the experiment with MCF7 it was > 100 µM (inactive); in the experiment with MDA-MB-231, > 100 µM (inactive). Moreover, the GI50 with MDA-MB-435, with NCI-H460, with OVCAR-5, in the experiment with PC-3, with RPMI-8226 and with SF-268 was > 100 µM (inactive) throughout. The GI50 in the experiment with SK-MEL-2, with SK-OV-3, with SNB-75, in the experiment on SW-620, in the experiment with T47D and in the experiment with U-251 was > 100 µM (inactive) in each case.

With `COc1ccc2nc3c(C)cc4ccccc4n3c2c1`, the GI50 in the experiment on ACHN was 47.3 µM (inactive); in the experiment on BT-549, > 100 µM (inactive); with DU-145, > 100 µM (inactive); in the experiment with HL-60, > 100 µM (inactive); in the experiment with Hs-578T, 18 µM (inactive); in the experiment with MCF7, 51.5 µM (inactive). The GI50 in the experiment with MDA-MB-435 was > 100 µM (inactive); in the experiment on NCI-H460, 25.3 µM (inactive); in the experiment with OVCAR-5, > 100 µM (inactive); with PC-3, 46.3 µM (inactive); in the experiment on RPMI-8226, 55.1 µM (inactive); in the experiment on SF-268, 86.9 µM (inactive). Besides, the GI50 in the experiment on SK-MEL-5 is 57.9 µM (inactive); in the experiment on SK-OV-3, > 100 µM (inactive); in the experiment with SNB-75, 28.2 µM (inactive); in the experiment with SW-620, 73.6 µM (inactive); with T47D, > 100 µM (inactive); in the experiment on U-251 it was 44.7 µM (inactive).

Turning to `CSCCCNC(=O)c1csc(-c2csc(CCNC(=O)CNC(=O)CNC(=O)CNC(=O)OC(C)(C)C)n2)n1`, the GI50 in the experiment with ACHN, with BT-549, in the experiment on DU-145, with Hs-578T, with MCF7 and with MDA-MB-231 was > 100 µM (inactive) in each case. The GI50 in the experiment with MDA-MB-435, in the experiment on NCI-H460, in the experiment on OVCAR-5, in the experiment on PC-3, in the experiment with SF-268 and in the experiment with SK-MEL-2 was > 100 µM (inactive) in each case. For the same compound, the GI50 in the experiment with SK-MEL-5, in the experiment on SK-OV-3, in the experiment on SNB-75, in the experiment with SW-620 and with U-251 was > 100 µM (inactive) each time.
